Assay [1] has as its target T1, human PFKFB3 (Homo sapiens, UniProt Q16875). Briefly: Biochemical throughput screening of NCI Diversity Set II and steady-state inhibition kinetics. Also on record: 443 amino acid residues of the full-length protein of 520 residues; 6xHis; made in house. The following applies: against F-6-P and ATP. The protocol:
To generate a framework of actives and non-actives for virtual screening, a throughput study of 1,364 NCI compounds was carried out. The inhibition extent of 10 μM of each compound, in substrate saturation conditions, was quantified and the results of the top 50 compounds are shown in FIG. 1. An arbitrary cutoff was chosen at 75% inhibition to describe compounds that were to be considered ‘potential’ actives. Based on this cutoff, 10 compounds were identified from the original 1,364.
To select the true positives, the 10 potential actives were subsequently tested for specificity for the F-6-P site, because the virtual screening was targeted for the F-6-P site. Using conventional steady state inhibition kinetics, 6 compounds were selected as the ‘true actives’ (T-actives), and these six compounds are shown in FIG. 3.
The recombinant human PFKFB3 was expressed and purified as previously described.[20] The 1,364 individual compounds of NCI's Diversity Set II were acquired from the NCI.
The 2-kinase activity assay for throughput screening was performed using a F-2,6-P2 assay modified for 96-well plates from the conventional method.[21] […] The reactions of seconds step were started by adding 0.5 mM sodium pyrophosphate (PPi) and were then measured for changes in absorbance at 340 nm over a period of 30 minutes. […]

Assay [2] deals with T1, human PFKFB3. Briefly: 2-Kase assay and kinetic analysis (enzyme-coupled Fru-2,6-BP assay). The class given is biochemical. To be noted: for Inhibition (type): versus Fru-6-P. Also on record: 443 amino acid residues of the full-length protein of 520 residues; 6xHis; made in house; host or cells: Escherichia coli BL21(DE3) pLysS. The protocol: To determine steady-state initial reaction rates, the 2-Kase reactions were performed first and the Fru-2,6-BP produced was measured by a conventional enzyme-coupled kinetics assay as described previously. The compounds, N4A and RBC2 came from the National Cancer Institute as indicated in Example 1. […] Initial rates of decrease in absorbance (Abs) at 340 nm were corrected with the rate of the control reaction in which no Fru-2,6-BP was present. Negative controls were carried out in the absence of enzyme and positive controls indicate the reaction in the presence of enzyme without inhibitor compounds. […] IC50 values were determined in quadruplicate. For the kinetic studies, concentrations of one of substrate and inhibitor were varied, and decrease in absorbance at 340 nm was measured. The inhibition patterns were analyzed using the program written by Cleland, in which Ki is the dissociation constants for the inhibitor from enzyme-inhibitor complex. For Selectivity studies, the 2-Kase assays were performed first and the F-2,6-P2 produced was measured by an enzyme coupled kinetics assay as described above. The His6-tagged PFKFB isoforms, PFKFB1, PFKFB2, and PFKFB4 were expressed in Escherichia coli C41(DE3) and purified using Ni-NTA affinity columns.

Another assay concerns MCF7. Nature of the assay: Cell growth inhibition. The class given is cell-based. The following applies: Homo sapiens. The protocol:
Cell growth inhibition was determined by an XTT-based in-vitro toxicology assay (Sigma-Aldrich) or trypan blue staining. Cells were plated at a density of 3.5×10^4 per well in a 24-well plate in DMEM containing 10% FCS. These cells were allowed to attach for 24 hours, and the media were replaced with fresh media containing either vehicle (dimethyl sulfoxide) or appropriate concentrations of test compounds. After 36 hours of incubation with either vehicle or compounds, cells were trypsinized and cell viability was determined by the trypan blue exclusion assay using a hemacytometer. For the XTT assay, cells were seeded into 96-well cell culture plates at a density of 0.6×10^4 per well. After the appropriate treatment described above, cells were incubated with 0.1 mg/ml of 2,3-bis(2-methoxy-4-nitro-5-sulfophenyl)-5-[(phenylamino)carbonyl]-2H-tetrazolium hydroxide (XTT) for 4 hours, and then cell number was determined by the absorbance at 470 nm, which is proportional to the number of cells that remained attached to the plate. GI50s were calculated as the inhibitor concentration needed for 50% of vehicle-treated cell growth. The appearance of apoptotic or necrotic cells was determined by flow cytometric analysis of cells double stained with Annexin V-FITC and propidium iodide (PI). […]

In another assay the test system is T47D. Briefly: Cell growth inhibition. The assay is classed as cell-based. The following applies: Homo sapiens. The protocol:
(§1) HeLa and T47D cell lines were cultured in a 10% CO2 humidified atmosphere at 37° C. as exponentially growing monolayers in Dulbecco's modified Eagle's medium (DMEM) with glutamax (Invitrogen), supplemented with 10% fetal calf serum (Invitrogen) and penicillin/streptomycin (100 U/ml and 100 μg/ml). The human cervical carcinoma cell line, HeLa, was kindly provided by Dr. J. Kim (Louisiana State University) and the human breast carcinoma cell line, T47D, was obtained from the American Type Culture Collection (Manassas, Va.).
Cell growth inhibition was determined by an XTT-based in-vitro toxicology assay (Sigma-Aldrich) or trypan blue staining. […] After 36 hours of incubation with either vehicle or compounds, cells were trypsinized and cell viability was determined by the trypan blue exclusion assay using a hemacytometer. […] After the appropriate treatment described above, cells were incubated with 0.1 mg/ml of 2,3-bis(2-methoxy-4-nitro-5-sulfophenyl)-5-[(phenylamino)carbonyl]-2H-tetrazolium hydroxide (XTT) for 4 hours, and then cell number was determined by the absorbance at 470 nm, which is proportional to the number of cells that remained attached to the plate. […] The appearance of apoptotic or necrotic cells was determined by flow cytometric analysis of cells double stained with Annexin V-FITC and propidium iodide (PI). […]

For the next assay, the target named is T2, PFKFB2 (Homo sapiens, UniProt O60825).
T2 construct: His6; made in house; host or cells: Escherichia coli C41(DE3)
Nature of the assay: 2-Kase selectivity assay on PFKFB isoforms. The following applies: at twice the IC50 for PFKFB3 (N4A=6 μM, YN1=1.3 μM). The class given is biochemical. The protocol: (§2) To determine steady-state initial reaction rates, the 2-Kase reactions were performed first and the Fru-2,6-BP produced was measured by a conventional enzyme-coupled kinetics assay as described previously. The compounds, N4A and RBC2 came from the National Cancer Institute as indicated in Example 1. […] Initial rates of decrease in absorbance (Abs) at 340 nm were corrected with the rate of the control reaction in which no Fru-2,6-BP was present. Negative controls were carried out in the absence of enzyme and positive controls indicate the reaction in the presence of enzyme without inhibitor compounds. The percentage of Inhibitory activity was calculated according to the formula: % inhibition=100×[1−(Absnegative control−Abscompound)/(Absnegative control−Abspositive control)]. IC50 values were determined in quadruplicate. For the kinetic studies, concentrations of one of substrate and inhibitor were varied, and decrease in absorbance at 340 nm was measured. The inhibition patterns were analyzed using the program written by Cleland, in which Ki is the dissociation constants for the inhibitor from enzyme-inhibitor complex. For Selectivity studies, the 2-Kase assays were performed first and the F-2,6-P2 produced was measured by an enzyme coupled kinetics assay as described above. The His6-tagged PFKFB isoforms, PFKFB1, PFKFB2, and PFKFB4 were expressed in Escherichia coli C41(DE3) and purified using Ni-NTA affinity columns.

In another assay the target is T3, PFKFB4 (Homo sapiens, UniProt Q16877).
T3 construct: His6; made in house; host or cells: Escherichia coli C41(DE3)
Nature of the assay: 2-Kase selectivity assay on PFKFB isoforms. To be noted: at twice the IC50 for PFKFB3 (N4A=6 μM, YN1=1.3 μM). The assay is classed as biochemical. The protocol: as §2

In another assay the target is T4, PFKFB1 (Homo sapiens, UniProt P16118).
T4 construct: His6; made in house; host or cells: Escherichia coli C41(DE3)
Briefly: 2-Kase selectivity assay on PFKFB isoforms. The assay is classed as biochemical. The following applies: at twice the IC50 for PFKFB3 (N4A=6 μM, YN1=1.3 μM). The protocol: as §2

Assay [3] has as its system HeLa cells. Nature of the assay: Flow-cytometric analysis of cell death (Annexin V-FITC / PI). The assay is classed as cell-based, human. The protocol: (§3) Cell growth inhibition was determined by an XTT-based in-vitro toxicology assay (Sigma-Aldrich) or trypan blue staining. Cells were plated at a density of 3.5×10^4 per well in a 24-well plate in DMEM containing 10% FCS. These cells were allowed to attach for 24 hours, and the media were replaced with fresh media containing either vehicle (dimethyl sulfoxide) or appropriate concentrations of test compounds. After 36 hours of incubation with either vehicle or compounds, cells were trypsinized and cell viability was determined by the trypan blue exclusion assay using a hemacytometer. For the XTT assay, cells were seeded into 96-well cell culture plates at a density of 0.6×10^4 per well. After the appropriate treatment described above, cells were incubated with 0.1 mg/ml of 2,3-bis(2-methoxy-4-nitro-5-sulfophenyl)-5-[(phenylamino)carbonyl]-2H-tetrazolium hydroxide (XTT) for 4 hours, and then cell number was determined by the absorbance at 470 nm, which is proportional to the number of cells that remained attached to the plate. GI50s were calculated as the inhibitor concentration needed for 50% of vehicle-treated cell growth. The appearance of apoptotic or necrotic cells was determined by flow cytometric analysis of cells double stained with Annexin V-FITC and propidium iodide (PI). Apoptotic and necrotic cells were distinguished on the basis of double-labeling for Annexin V-FITC (Sigma-Aldrich) and PI, a membrane-impermeable DNA stain. Floating and freshly trypsinized cells were pooled, washed twice in binding buffer, and processed following manufacturer's instructions. The fluorescence of samples were analyzed by flow cytometry (FACSCalibur®, Becton Dickinson Immunocytometry, San Jose, Calif.) using the CellQuest (BD Bioscience, Immunocytometry Systems, San Jose, Calif., USA) software.

For another assay, the system named is HeLa and T47D cells. Briefly: Cell growth inhibition (XTT or trypan blue). The class given is cell-based, human. The following applies: for cell survival compared to unexposed cells: 25 μM. The protocol: as §1
as §3, with “Apoptotic and necrotic cells were distinguished on the basis of double-labeling for Annexin V-FITC (Sigma-Aldrich) and PI, a membrane-impermeable DNA stain. Floating and freshly trypsinized cells were pooled, washed twice in binding buffer, and processed following manufacturer's instructions.” left out
(Formazan colour is commonly taken as a measure of viable cells.)

Assay [4] deals with HeLa cells. Nature of the assay: Cellular Fru-2,6-BP level determination. To be noted: 25 μM, 8 hour exposure. The assay is classed as cell-based, human. The protocol:
HeLa cells were plated at a density of 2.5×10^5 in a 6-well plate in DMEM containing 10% FCS. The media were replaced with fresh DMEM containing either vehicle (dimethyl sulfoxide) or 25 μM of inhibitor the following day. After 0, 4, 8, 12, 24, or 48 hours of incubation with each inhibitor, media samples were collected for measuring the lactate secretion levels using a lactate oxidase-based assay kit (Sigma-Aldrich), and the lactate concentration was normalized to the total cellular protein concentration. The Fru-2,6-BP level was determined with collected cells at times of 0, 4, 8, 12, 24, or 48 hours after the treatment, using the method described previously.

Assay [5] has as its system HeLa cells. Briefly: Soft agar colony formation. The class given is cell-based, human. The protocol:
HeLa cell colony formation was determined by soft agar assay. Cells (2×10^3) were mixed in DMEM medium containing 0.35% agarose and varying concentrations of N4A or YN1. Then the cell mixture was added on a layer of 0.6% concentration of bottom agar in 24 well plate and allowed to grow for three weeks at 37° C. under 5% CO2. Fresh medium containing the inhibitors or vehicle (DMSO) was changed every four days. Colonies of 50 cells or more were counted after three weeks. The experiments were repeated at least five times.

T1 sequence (Q16875 whole entry): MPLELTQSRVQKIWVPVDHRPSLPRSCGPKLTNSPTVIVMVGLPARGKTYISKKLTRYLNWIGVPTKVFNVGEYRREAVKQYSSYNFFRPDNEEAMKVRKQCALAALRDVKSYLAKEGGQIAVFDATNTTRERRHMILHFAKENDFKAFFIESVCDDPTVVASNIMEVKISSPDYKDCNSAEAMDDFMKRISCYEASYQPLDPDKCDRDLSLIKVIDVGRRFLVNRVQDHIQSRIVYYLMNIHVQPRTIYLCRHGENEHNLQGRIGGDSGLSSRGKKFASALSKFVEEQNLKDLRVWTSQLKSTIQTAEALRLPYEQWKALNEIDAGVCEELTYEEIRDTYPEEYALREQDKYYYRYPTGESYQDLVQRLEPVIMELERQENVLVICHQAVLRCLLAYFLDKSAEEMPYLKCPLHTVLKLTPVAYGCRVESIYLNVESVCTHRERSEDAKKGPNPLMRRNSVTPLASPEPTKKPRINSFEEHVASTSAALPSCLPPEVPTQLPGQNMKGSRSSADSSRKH
T3 sequence (Q16877 whole entry): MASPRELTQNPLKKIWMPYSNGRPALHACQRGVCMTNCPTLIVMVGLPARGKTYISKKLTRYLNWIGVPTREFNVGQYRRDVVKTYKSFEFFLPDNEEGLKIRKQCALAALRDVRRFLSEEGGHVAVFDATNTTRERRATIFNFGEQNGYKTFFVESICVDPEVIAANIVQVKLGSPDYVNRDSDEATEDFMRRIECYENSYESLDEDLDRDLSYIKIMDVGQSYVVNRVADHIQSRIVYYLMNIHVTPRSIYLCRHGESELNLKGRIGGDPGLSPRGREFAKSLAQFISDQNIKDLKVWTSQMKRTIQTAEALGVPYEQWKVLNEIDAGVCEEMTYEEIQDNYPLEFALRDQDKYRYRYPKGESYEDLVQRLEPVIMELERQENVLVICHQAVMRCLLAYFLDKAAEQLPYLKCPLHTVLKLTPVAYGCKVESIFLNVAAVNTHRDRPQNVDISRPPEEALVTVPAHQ
T4 sequence (P16118 whole entry): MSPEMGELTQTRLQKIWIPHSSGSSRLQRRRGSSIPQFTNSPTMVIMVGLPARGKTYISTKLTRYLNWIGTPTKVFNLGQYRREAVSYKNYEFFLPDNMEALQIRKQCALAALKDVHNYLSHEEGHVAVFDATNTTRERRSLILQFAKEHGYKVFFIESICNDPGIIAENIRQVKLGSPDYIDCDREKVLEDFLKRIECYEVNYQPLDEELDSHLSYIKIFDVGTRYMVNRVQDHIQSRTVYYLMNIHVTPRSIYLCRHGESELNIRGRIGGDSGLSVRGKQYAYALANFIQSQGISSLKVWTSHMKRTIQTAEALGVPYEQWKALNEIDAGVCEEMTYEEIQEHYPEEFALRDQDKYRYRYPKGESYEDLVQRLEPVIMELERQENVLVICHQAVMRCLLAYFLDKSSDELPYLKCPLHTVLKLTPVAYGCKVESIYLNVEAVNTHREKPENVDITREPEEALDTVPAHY
T2 sequence (O60825 whole entry): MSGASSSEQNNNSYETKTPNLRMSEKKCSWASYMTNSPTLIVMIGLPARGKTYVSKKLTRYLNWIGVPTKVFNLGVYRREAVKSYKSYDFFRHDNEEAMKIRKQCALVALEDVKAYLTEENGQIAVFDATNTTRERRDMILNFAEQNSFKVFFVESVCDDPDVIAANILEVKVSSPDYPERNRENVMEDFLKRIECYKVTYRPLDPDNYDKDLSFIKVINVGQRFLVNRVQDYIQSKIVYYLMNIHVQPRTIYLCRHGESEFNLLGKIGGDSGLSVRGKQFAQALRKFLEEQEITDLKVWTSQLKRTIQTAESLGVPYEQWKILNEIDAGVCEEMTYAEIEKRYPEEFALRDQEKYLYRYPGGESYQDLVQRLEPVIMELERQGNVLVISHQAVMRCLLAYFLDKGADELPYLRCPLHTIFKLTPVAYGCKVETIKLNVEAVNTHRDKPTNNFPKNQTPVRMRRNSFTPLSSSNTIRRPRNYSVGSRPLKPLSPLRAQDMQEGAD

Regarding `CCOC(=O)C=C(C)Sc1cc(O)c2ccccc2c1O` (stereo in doubt) [RBC2, (Z)-ethyl 3-((1,4-dihydroxynaphthalen-2-yl)thio)but-2-enoate], the inhibition pattern entry on human PFKFB3 [1] is “competitive inhibition”. Also, the “Inhibition (type)” value on human PFKFB3 [2] is recorded as “Competitive”. Besides, the GI50 (as a rule, the concentration that inhibits growth by half) in the assay with MCF7 was found to be 4400 nM; with T47D, 3500 nM.

Consider `O=c1cc(-c2ccc(O)cc2)oc2c(O)c(O)c(O)c(O)c12` [Compound N4A, 5,6,7,8-tetrahydroxy-2-(4-hydroxyphenyl)chromene-4-one], for which the “percent inhibition of PFKFB2” value at PFKFB2 is “less than 50%”. Also, the “percent inhibition of PFKFB4” value at PFKFB4 is “less than 50%”. Besides, at PFKFB1, the “percent inhibition of PFKFB1” value is on record as “less than 50%”. For the same compound, in the assay with HeLa cells [3] (25 μM), the “type of cell death at low concentration” value was “cells were found to be prone to apoptosis”. Also, the “type of cell death induced” value in the assay with HeLa cells [3] (25 μM and 50 μM) is “induced both apoptotic and necrotic cell death”. Also, the “type of cell death at higher concentration” value in the assay on HeLa cells [3] (50 μM) was “death by necrosis was significantly increased”. Moreover, in the assay on HeLa and T47D cells, the “cell survival compared to unexposed cells” value is recorded as “significant reduction in cell survival”. For the same compound, the inhibition at 10 µM against human PFKFB3 [2] (10 μM, substrate-saturating conditions, not affected by 0.1% Tween-20) is > 65%. For the same compound, the IC50 (in general, the concentration needed to halve the response being measured) on human PFKFB3 [2] (PFKFB3 2-kinase activity) was found to be 2970 ± 160 nM. At human PFKFB3 [2] (competitive against Fru-6-P), the inhibitory constant (Ki) (usually the dissociation constant of the complex between target and ligand, obtained from inhibition or displacement) was 1290 ± 260 nM. Also, the “Inhibition (type)” value on human PFKFB3 [2] was “competitive inhibitor against Fru-6-P”. The “reduction of Fru-2,6-BP (ratio to control)” value in the assay with HeLa cells [4] was “approximately 20%”. Besides, in the assay with HeLa cells [5] (Homo sapiens, 504 h, soft agar, 25 μM, 3 weeks, read-out: colony formation inhibited), the inhibition at 25 µM was 64%. Besides, the “effect on colony formation” value in the assay on HeLa cells [5] (soft agar, 25, 50 and 100 μM) is on record as “significantly inhibited colony formation”.

Consider `CCOC(=O)c1cc2ccc(O)cc2oc1=O` [YZ9, ethyl 7-hydroxy-2-oxochromene-3-carboxylate], for which the “cell survival compared to unexposed cells” value in the assay on HeLa and T47D cells is on record as “significant reduction in cell survival”. The GI50 in the assay on HeLa and T47D cells (Homo sapiens, 36 h, cell line not stated in Table 1 (HeLa and T47D tested)) came to 2700 nM.

The values above are taken from patent publication US9492418B2, “Inhibitors of PFKFB3 for cancer therapy” (Board of Supervisors of Louisiana State University And …, priority 2011, dated 2016).
